Results reported in patent publication US20240116985A1, “STAPLED PEPTIDES AND METHODS THEREOF” (priority 2020, published 2024).

Tests used:
[1] = target: T1, beta-catenin/TCF4 engagement (Homo sapiens, UniProt P35222); assay: Nano-BRET target engagement assay (B-cat-Halo & TCF4-Luc in HEK293 cells); format: cell-based; settings: absolute IC50; read-out: NanoBRET Abs IC50
T1 construct: expressed in transfected cells; host or cells: HEK293
T1 sequence (P35222 1-781): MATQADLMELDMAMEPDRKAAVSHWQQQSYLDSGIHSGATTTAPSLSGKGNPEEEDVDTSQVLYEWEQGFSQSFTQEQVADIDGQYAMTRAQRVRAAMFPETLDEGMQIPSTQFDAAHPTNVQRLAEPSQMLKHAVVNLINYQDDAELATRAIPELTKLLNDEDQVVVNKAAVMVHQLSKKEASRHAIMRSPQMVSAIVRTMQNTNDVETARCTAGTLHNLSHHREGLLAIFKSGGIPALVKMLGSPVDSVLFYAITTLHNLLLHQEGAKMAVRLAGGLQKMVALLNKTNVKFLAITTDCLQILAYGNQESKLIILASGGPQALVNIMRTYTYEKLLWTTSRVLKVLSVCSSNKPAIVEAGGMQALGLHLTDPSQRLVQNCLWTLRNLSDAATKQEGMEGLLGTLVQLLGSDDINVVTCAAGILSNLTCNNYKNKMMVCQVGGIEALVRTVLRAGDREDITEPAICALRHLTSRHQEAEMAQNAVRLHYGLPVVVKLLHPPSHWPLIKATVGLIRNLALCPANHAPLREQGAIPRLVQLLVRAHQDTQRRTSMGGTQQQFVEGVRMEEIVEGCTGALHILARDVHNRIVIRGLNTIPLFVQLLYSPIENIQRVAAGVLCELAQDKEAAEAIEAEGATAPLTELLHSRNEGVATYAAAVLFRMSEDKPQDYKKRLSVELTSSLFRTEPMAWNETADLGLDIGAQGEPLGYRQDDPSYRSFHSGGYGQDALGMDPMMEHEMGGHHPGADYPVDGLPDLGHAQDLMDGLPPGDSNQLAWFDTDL

[2] = target: T2, full-length beta-Catenin (Uniprot ID P35222) (Homo sapiens, UniProt P35222); assay: Fluorescence polarization IC50 (beta-catenin / 5FAM-TCF4 10-53 competition); format: binding; settings: fluorescence polarization; read-out: beta-Catenin FP IC50
T2 construct: 10 nM full-length beta-Catenin (Uniprot ID P35222)
T2 sequence (P35222 1-781): T1 sequence (P35222 1-781)

Row | SMILES | IC50 [1] | IC50 [2]
1 | CC(=O)N1CCC[C@]12CC=CCCCC1(CCCC=CCCCOC(=O)N3CC[C@@](C(=O)N[C@@H](Cc4ccsc4)C(=O)N[C@@H](Cc4ccc(F)c(Br)c4)C(=O)N[C@@H](C)C(N)=O)(C3)NC(=O)[C@H](C(C)C)NC(=O)[C@H](Cc3ccccc3)NC(=O)[C@H](C)NC(=O)[C@H](CCC(N)=O)NC(=O)[C@H](Cc3cccc(C(=O)O)c3)NC(=O)[C@H](CC(=O)O)NC1=O)NC(=O)[C@H](CC(C)(C)C)NC(=O)[C@H](CC(=O)O)NC2=O (stereo partly drawn) [I-2288, Ac-PL3-Asp-Npg-B5-Asp-3COOHF-Gln-Ala-Phe-Val-PyrS2-3Thi-3Br4FF-Ala-NH2] | 6700 nM | 5 nM
2 | CC(=O)N1CCC[C@]12CC=CCCCC1(CCCC=CCCCOC(=O)N3CC[C@@](C(=O)N[C@@H](Cc4ccccc4C(F)(F)F)C(=O)N[C@@H](Cc4ccc(F)c(Br)c4)C(=O)N[C@@H](CO)C(N)=O)(C3)NC(=O)[C@H](CC(C)C)NC(=O)[C@H](Cc3ccccc3)NC(=O)[C@H](C)NC(=O)[C@H](C)NC(=O)[C@H](Cc3cccc(C(=O)O)c3)NC(=O)[C@H](CC(=O)O)NC1=O)NC(=O)[C@H](CC(C)(C)C)NC(=O)[C@H](CC(=O)O)NC2=O (stereo partly drawn) [I-2289, Ac-PL3-Asp-Npg-B5-Asp-3COOHF-Ala-Ala-Phe-Leu-PyrS2-2F3MeF-3Br4FF-Ser-NH2] | 9000 nM | 8 nM
3 | CC(=O)N1CCC[C@]12CC=CCCCC1(CCCC=CCCCOC(=O)N3CC[C@@](C(=O)N[C@@H](Cc4ccccc4C(F)(F)F)C(=O)N[C@@H](Cc4ccc(F)c(Br)c4)C(=O)N[C@@H](C)C(N)=O)(C3)NC(=O)[C@H](CC(C)C)NC(=O)[C@H](Cc3ccccc3)NC(=O)[C@H](C)NC(=O)[C@H](CCC(N)=O)NC(=O)[C@H](Cc3cccc(C(=O)O)c3)NC(=O)[C@H](CC(=O)O)NC1=O)NC(=O)[C@H](CC(C)(C)C)NC(=O)[C@H](CC(=O)O)NC2=O (stereo partly drawn) [I-2290, Ac-PL3-Asp-Npg-B5-Asp-3COOHF-Gln-Ala-Phe-Leu-PyrS2-2F3MeF-3Br4FF-Ala-NH2] | 7900 nM | 14 nM
4 | CC(=O)N1CCC[C@]12CC=CCCCC1(CCCC=CCCCOC(=O)N3CC[C@@](C(=O)N[C@@H](Cc4ccccc4C(F)(F)F)C(=O)N[C@@H](Cc4ccc(C)c(C)c4)C(=O)N[C@@H](CO)C(N)=O)(C3)NC(=O)[C@H](CC(C)C)NC(=O)[C@H](Cc3ccccc3)NC(=O)[C@H](C)NC(=O)[C@H](C)NC(=O)[C@H](Cc3cccc(C(=O)O)c3)NC(=O)[C@H](CC(=O)O)NC1=O)NC(=O)[C@H](CC(C)(C)C)NC(=O)[C@H](CC(=O)O)NC2=O (stereo partly drawn) [I-2293, Ac-PL3-Asp-Npg-B5-Asp-3COOHF-Ala-Ala-Phe-Leu-PyrS2-2F3MeF-34MeF-Ser-NH2] | 5700 nM | 15 nM
5 | CC(=O)N1CCC[C@]12CC=CCCCC1(CCCC=CCCCOC(=O)N3CC[C@@](C(=O)N[C@@H](Cc4ccccc4C(F)(F)F)C(=O)N[C@@H](Cc4ccc5c(c4)CCC5)C(=O)N[C@@H](CO)C(N)=O)(C3)NC(=O)[C@H](CC(C)C)NC(=O)[C@H](Cc3ccccc3)NC(=O)[C@H](C)NC(=O)[C@H](C)NC(=O)[C@H](Cc3cccc(C(=O)O)c3)NC(=O)[C@H](CC(=O)O)NC1=O)NC(=O)[C@H](CC(C)(C)C)NC(=O)[C@H](CC(=O)O)NC2=O (stereo partly drawn) [I-2297, Ac-PL3-Asp-Npg-B5-Asp-3COOHF-Ala-Ala-Phe-Leu-PyrS2-2F3MeF-5IndA-Ser-NH2] | 5500 nM | 68 nM

The next compounds have a lower IC50 [1] than those just listed; values first:

Row | IC50 [1] | IC50 [2] | SMILES
6 | 4900 nM | 5 nM | CC(=O)N1CCC[C@]12CC=CCCCC1(CCCC=CCCCOC(=O)N3CC[C@@](C(=O)N[C@@H](Cc4ccsc4)C(=O)N[C@@H](Cc4ccc(C)c(C)c4)C(=O)N[C@@H](CCC(N)=O)C(N)=O)(C3)NC(=O)[C@H](CC(C)C)NC(=O)[C@H](Cc3ccccc3)NC(=O)[C@H](C)NC(=O)[C@H](C)NC(=O)[C@H](Cc3cccc(C(=O)O)c3)NC(=O)[C@H](CC(=O)O)NC1=O)NC(=O)[C@H](CC(C)(C)C)NC(=O)[C@H](CC(=O)O)NC2=O (stereo partly drawn) [I-2291, Ac-PL3-Asp-Npg-B5-Asp-3COOHF-Ala-Ala-Phe-Leu-PyrS2-3Thi-34MeF-Gln-NH2]
7 | 2700 nM | 9 nM | CC(=O)N1CCC[C@]12CC=CCCCC1(CCCC=CCCCOC(=O)N3CC[C@@](C(=O)N[C@@H](Cc4ccsc4)C(=O)N[C@@H](Cc4ccc(C)c(C)c4)C(=O)N[C@@H](C)C(N)=O)(C3)NC(=O)[C@H](C(C)C)NC(=O)[C@H](Cc3ccccc3)NC(=O)[C@H](C)NC(=O)[C@H](CCC(N)=O)NC(=O)[C@H](Cc3cccc(C(=O)O)c3)NC(=O)[C@H](CC(=O)O)NC1=O)NC(=O)[C@H](CC(C)(C)C)NC(=O)[C@H](CC(=O)O)NC2=O (stereo partly drawn) [I-2292, Ac-PL3-Asp-Npg-B5-Asp-3COOHF-Gln-Ala-Phe-Val-PyrS2-3Thi-34MeF-Ala-NH2]
8 | 4600 nM | 16 nM | CC(=O)N1CCC[C@]12CC=CCCCC1(CCCC=CCCCOC(=O)N3CC[C@@](C(=O)N[C@@H](Cc4ccccc4C(F)(F)F)C(=O)N[C@@H](Cc4ccc(C)c(C)c4)C(=O)N[C@@H](C)C(N)=O)(C3)NC(=O)[C@H](CC(C)C)NC(=O)[C@H](Cc3ccccc3)NC(=O)[C@H](C)NC(=O)[C@H](CCC(N)=O)NC(=O)[C@H](Cc3cccc(C(=O)O)c3)NC(=O)[C@H](CC(=O)O)NC1=O)NC(=O)[C@H](CC(C)(C)C)NC(=O)[C@H](CC(=O)O)NC2=O (stereo partly drawn) [I-2294, Ac-PL3-Asp-Npg-B5-Asp-3COOHF-Gln-Ala-Phe-Leu-PyrS2-2F3MeF-34MeF-Ala-NH2]
9 | 3300 nM | 5 nM | CC(=O)N1CCC[C@]12CC=CCCCC1(CCCC=CCCCOC(=O)N3CC[C@@](C(=O)N[C@@H](Cc4ccsc4)C(=O)N[C@@H](Cc4ccc5c(c4)CCC5)C(=O)N[C@@H](CCC(N)=O)C(N)=O)(C3)NC(=O)[C@H](CC(C)C)NC(=O)[C@H](Cc3ccccc3)NC(=O)[C@H](C)NC(=O)[C@H](C)NC(=O)[C@H](Cc3cccc(C(=O)O)c3)NC(=O)[C@H](CC(=O)O)NC1=O)NC(=O)[C@H](CC(C)(C)C)NC(=O)[C@H](CC(=O)O)NC2=O (stereo partly drawn) [I-2295, Ac-PL3-Asp-Npg-B5-Asp-3COOHF-Ala-Ala-Phe-Leu-PyrS2-3Thi-5IndA-Gln-NH2]
10 | 5100 nM | 6 nM | CC(=O)N1CCC[C@]12CC=CCCCC1(CCCC=CCCCOC(=O)N3CC[C@@](C(=O)N[C@@H](Cc4ccsc4)C(=O)N[C@@H](Cc4ccc5c(c4)CCC5)C(=O)N[C@@H](C)C(N)=O)(C3)NC(=O)[C@H](C(C)C)NC(=O)[C@H](Cc3ccccc3)NC(=O)[C@H](C)NC(=O)[C@H](CCC(N)=O)NC(=O)[C@H](Cc3cccc(C(=O)O)c3)NC(=O)[C@H](CC(=O)O)NC1=O)NC(=O)[C@H](CC(C)(C)C)NC(=O)[C@H](CC(=O)O)NC2=O (stereo partly drawn) [I-2296, Ac-PL3-Asp-Npg-B5-Asp-3COOHF-Gln-Ala-Phe-Val-PyrS2-3Thi-5IndA-Ala-NH2]
11 | 4600 nM | 8 nM | CC(=O)N1CCC[C@]12CC=CCCCC1(CCCC=CCCCOC(=O)N3CC[C@@](C(=O)N[C@@H](Cc4ccccc4C(F)(F)F)C(=O)N[C@@H](Cc4ccc5c(c4)CCC5)C(=O)N[C@@H](C)C(N)=O)(C3)NC(=O)[C@H](CC(C)C)NC(=O)[C@H](Cc3ccccc3)NC(=O)[C@H](C)NC(=O)[C@H](CCC(N)=O)NC(=O)[C@H](Cc3cccc(C(=O)O)c3)NC(=O)[C@H](CC(=O)O)NC1=O)NC(=O)[C@H](CC(C)(C)C)NC(=O)[C@H](CC(=O)O)NC2=O (stereo partly drawn) [I-2298, Ac-PL3-Asp-Npg-B5-Asp-3COOHF-Gln-Ala-Phe-Leu-PyrS2-2F3MeF-5IndA-Ala-NH2]
